Assay results published in patent US10023593B2, “ALK kinase inhibitor, and preparation method and uses thereof” (BEIJING PEARL BIOTECHNOLOGY LIMITED LIABILITY COMPANY, priority 2014, dated 2018).

Key:
[1] = target: T1, L1196M mutant ALK kinase (Homo sapiens, UniProt Q9UM73, L1196M); assay: HTRF KinEASE-TK assay, inhibitory activity on L1196M mutant ALK kinase; format: biochemical; conditions: L1196M mutant ALK 1 ng/μl, substrate 1 μM, ATP 5 μM, 30° C. 35 minutes, read-out: Inhibition on ALK kinases (L1196M mutant), IC50
T1 construct: purchased Sino-US Crown Bioscience, Inc. batch number ALKm_20110923
T1 sequence (Q9UM73 19-1620 L1196M): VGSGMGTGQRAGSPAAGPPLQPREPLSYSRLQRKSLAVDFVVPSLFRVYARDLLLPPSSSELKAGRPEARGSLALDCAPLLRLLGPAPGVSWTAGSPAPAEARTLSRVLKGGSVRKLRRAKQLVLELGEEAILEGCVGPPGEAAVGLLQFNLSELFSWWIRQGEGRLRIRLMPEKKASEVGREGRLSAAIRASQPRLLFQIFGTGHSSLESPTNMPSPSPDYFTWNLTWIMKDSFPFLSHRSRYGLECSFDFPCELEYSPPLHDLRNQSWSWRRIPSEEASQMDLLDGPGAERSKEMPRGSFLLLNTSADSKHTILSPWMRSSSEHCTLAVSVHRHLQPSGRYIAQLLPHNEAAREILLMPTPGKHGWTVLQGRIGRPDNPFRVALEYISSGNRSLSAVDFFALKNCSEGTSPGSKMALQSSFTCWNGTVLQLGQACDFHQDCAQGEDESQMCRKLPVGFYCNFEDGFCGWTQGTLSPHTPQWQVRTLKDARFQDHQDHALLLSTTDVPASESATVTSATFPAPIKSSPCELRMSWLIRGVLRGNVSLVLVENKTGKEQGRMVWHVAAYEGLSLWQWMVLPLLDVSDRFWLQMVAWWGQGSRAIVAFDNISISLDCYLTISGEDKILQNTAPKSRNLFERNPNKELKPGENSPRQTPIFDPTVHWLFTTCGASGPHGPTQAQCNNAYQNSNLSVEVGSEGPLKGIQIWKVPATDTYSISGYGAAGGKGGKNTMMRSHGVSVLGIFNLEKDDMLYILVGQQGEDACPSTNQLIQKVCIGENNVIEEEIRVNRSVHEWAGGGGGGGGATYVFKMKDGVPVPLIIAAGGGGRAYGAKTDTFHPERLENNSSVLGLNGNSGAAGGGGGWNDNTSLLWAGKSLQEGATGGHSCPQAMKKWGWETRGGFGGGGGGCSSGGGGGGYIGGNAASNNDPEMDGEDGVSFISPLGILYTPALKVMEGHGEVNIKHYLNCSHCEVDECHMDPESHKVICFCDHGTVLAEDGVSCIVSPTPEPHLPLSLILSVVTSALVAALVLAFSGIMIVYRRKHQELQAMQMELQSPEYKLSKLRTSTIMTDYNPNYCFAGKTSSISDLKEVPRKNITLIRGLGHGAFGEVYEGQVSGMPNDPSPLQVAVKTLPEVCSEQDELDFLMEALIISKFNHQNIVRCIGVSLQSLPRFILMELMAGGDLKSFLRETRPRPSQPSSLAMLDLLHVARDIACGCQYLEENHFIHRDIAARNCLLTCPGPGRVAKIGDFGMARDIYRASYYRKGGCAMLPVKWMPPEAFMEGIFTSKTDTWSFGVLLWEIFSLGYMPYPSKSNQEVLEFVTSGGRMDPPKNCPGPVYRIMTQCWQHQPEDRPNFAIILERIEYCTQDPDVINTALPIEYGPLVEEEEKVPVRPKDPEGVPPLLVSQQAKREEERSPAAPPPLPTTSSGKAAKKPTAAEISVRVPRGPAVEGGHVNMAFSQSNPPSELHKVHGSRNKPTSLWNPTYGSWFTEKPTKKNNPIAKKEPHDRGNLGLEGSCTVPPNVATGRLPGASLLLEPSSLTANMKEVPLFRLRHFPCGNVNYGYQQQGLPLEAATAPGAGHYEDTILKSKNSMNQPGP
Procedure, shortened: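 HTRF TK assay: mutant kinase 1 ng/μl, substrate 1 μM, ATP 5 μM, 5 mM MgCl2, 1 mM DTT, 1% DMSO, 35 min at 30 °C. 665/615 ratio read; inhibition normalised to no-compound and 10.4 μM LDK-378 controls; IC50 from curve fit.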

[2] = tested on: NCI-H2228 cell line; assay: CellTiter-Glo cell proliferation inhibition on NCI-H2228 cell line; format: cell-based; conditions: Homo sapiens, NCI-H2228, 96 h, NCI-H2228 cells, 5000 cells/well, 4 days drug treatment
Procedure, shortened: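 NCI-H2228 cells, 5000/well in RPMI-1640 + 10% FBS, treated with compounds 2 h after seeding (0.5% DMSO final) for 4 days at 37° C. Viability by CellTiter-Glo luminescence; inhibition relative to DMSO control, IC50 from curve fit.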

| SMILES | IC50 [1] | IC50 [2] |
| --- | --- | --- |
| Cc1cc(Nc2ncc(Cl)c(Nc3cn(C)nc3S(=O)(=O)CC(C)C)n2)c(OC2CC2)cc1C1CCNCC1 [Final product 28] | 15 nM | 134 nM |
| CC(C)S(=O)(=O)c1nn(C)cc1Nc1nc(Nc2cc(C#N)c(C3CCNCC3)cc2OC2CC2)ncc1Cl [Final product 29] | 7 nM | 159 nM |
| CC(C)S(=O)(=O)c1nn(C)cc1Nc1nc(Nc2ccc(C3CCN(C)CC3)cc2OC(F)(F)F)ncc1Cl [Final product 30] | 18 nM | 93 nM |
| Cc1cc(Nc2ncc(Cl)c(Nc3cn(C)nc3S(=O)(=O)C(C)C)n2)c(OC(F)(F)F)cc1C1CCN(C)CC1 [Final product 31] | 10 nM | 374 nM |
| Cc1cc(Nc2ncc(Cl)c(Nc3cn(C)nc3S(=O)(=O)C(C)C)n2)c(C(F)(F)F)cc1C1CCN(C)CC1 [Final product 32] | 49 nM | 1080 nM |
| Cc1cc(Nc2ncc(Cl)c(Nc3cn(C)nc3S(=O)(=O)C(C)C)n2)c(OC(CF)CF)cc1C1CCN(C)CC1 [Final product 34] | 23 nM | 403 nM |
| Cc1cc(Nc2ncc(Cl)c(Nc3cn(C)nc3S(=O)(=O)CC(C)C)n2)c(OC(C)C)cc1C1CN(C)C1 [Final product 36] | 15 nM | 326 nM |
| Cc1cc(Nc2ncc(Cl)c(Nc3cn(C)nc3S(=O)(=O)C(C)C)n2)c(OC(C)C)cc1C1CCN(C)C1 (stereo not shown) [Final product 37] | 4 nM | 131 nM |
| CC(C)S(=O)(=O)c1nn(C2CC2)cc1Nc1nc(Nc2ccc(C3CCN(C)CC3)cc2OC(F)(F)F)ncc1Cl [Final product 38] | 18 nM | 146 nM |
| Cc1cc(Nc2ncc(Cl)c(Nc3cn(C)nc3S(=O)(=O)C(C)C)n2)c(OCC2CC2)cc1C1CCN(C)CC1 [Final product 39] | 48 nM | 226 nM |
| CC(C)S(=O)(=O)c1nn(C)cc1Nc1nc(Nc2ccc(C3CCN(C)CC3)cc2OC2CC2)ncc1Cl [Final product 40] | 5 nM | 36 nM |
| CC(C)S(=O)(=O)c1nn(C)cc1Nc1nc(Nc2ccc(C3CCN(C)C3)cc2OC2CC2)ncc1Cl (stereo not shown) [Final product 41] | 3 nM | 33 nM |
| CC(C)S(=O)(=O)c1nn(C2CC2)cc1Nc1nc(Nc2ccc(C3CCN(C)CC3)cc2OC2CC2)ncc1Cl [Final product 42] | 3 nM | 29 nM |
| CC(C)CS(=O)(=O)c1nn(C)cc1Nc1nc(Nc2ccc(C3CCN(C)CC3)cc2OC2CC2)ncc1Cl [Final product 43] | 12 nM | 125 nM |
| CC(C)S(=O)(=O)c1nn(C)cc1Nc1nc(Nc2cc(F)c(C3CCN(C)C3)cc2OC2CC2)ncc1Cl (stereo not shown) [Final product 45] | 10 nM | 135 nM |
| CC(C)S(=O)(=O)c1nn(C2CC2)cc1Nc1nc(Nc2cc(F)c(C3CCN(C)CC3)cc2OC2CC2)ncc1Cl [Final product 46] | 6 nM | 127 nM |
| CC(C)S(=O)(=O)c1nn(C)cc1Nc1nc(Nc2cc(Cl)c(C3CCN(C)CC3)cc2OC2CC2)ncc1Cl [Final product 47] | 10 nM | 103 nM |
| CC(C)S(=O)(=O)c1nn(C2CC2)cc1Nc1nc(Nc2cc(Cl)c(C3CCN(C)CC3)cc2OC2CC2)ncc1Cl [Final product 48] | 5 nM | 115 nM |
| CC(C)S(=O)(=O)c1nn(C)cc1Nc1nc(Nc2cc(C#N)c(C3CCN(C)CC3)cc2OC2CC2)ncc1Cl [Final product 49] | 13 nM | 165 nM |
| Cc1cc(Nc2ncc(Cl)c(Nc3cn(C)nc3S(=O)(=O)C(C)C)n2)c(OC2CC2)cc1C1=CCN(C)CC1 [Final product 50] | 7 nM | 86 nM |
